Reference: the supplement of paper PMC10307832

Key:
Assay in all cases: relative viability (nuclei count vs DMSO), 5 days (fraction); higher = more cells survive
NCI-H650 = test system: NCI-H650
Procedure, shortened: (§1)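 Medians of duplicate plates are given as relative viability. That measure is the nuclei count in treated wells divided by the count in vehicle wells. Counts were taken on 4× images of lung cancer cell lines in 1536-well plates, 5 days after pin-tool dosing the day after seeding with one drug alone or a fixed anchor-drug dose plus five library-drug doses (not always all listed) in √10 steps.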

EPLC-272H = test system: EPLC-272H
Procedure, shortened: as §1

NCI-H2087 = test system: NCI-H2087
Procedure, shortened: as §1

NCI-H2085 = test system: NCI-H2085
Procedure, shortened: as §1

LCLC-103H = test system: LCLC-103H
Procedure, shortened: as §1

RERF-LC-KJ = test system: RERF-LC-KJ
Procedure, shortened: as §1

NCI-H2170 = test system: NCI-H2170
Procedure, shortened: as §1

PC-14 = test system: PC-14
Procedure, shortened: as §1

SK-MES-1 = test system: SK-MES-1
Procedure, shortened: as §1

NCI-H647 = test system: NCI-H647
Procedure, shortened: as §1

NCI-H1395 = test system: NCI-H1395
Procedure, shortened: as §1

NCI-H3122 = test system: NCI-H3122
Procedure, shortened: as §1

A-427 = test system: A-427
Procedure, shortened: as §1

NCI-H1651 = test system: NCI-H1651
Procedure, shortened: as §1

COR-L 105 = test system: COR-L 105
Procedure, shortened: as §1

LXF-289 = test system: LXF-289
Procedure, shortened: as §1

NCI-H1975 = test system: NCI-H1975
Procedure, shortened: as §1

NCI-H1993 = test system: NCI-H1993
Procedure, shortened: as §1

NCI-H2023 = test system: NCI-H2023
Procedure, shortened: as §1

NCI-H596 = test system: NCI-H596
Procedure, shortened: as §1

HOP-62 = test system: HOP-62
Procedure, shortened: as §1

COR-L23 = test system: COR-L23
Procedure, shortened: as §1

## O=C(O)CCCCC(CCSCc1ccccc1)SCc1ccccc1 (stereo not given) [CPI-613] + Nc1ncn([C@H]2C[C@H](O)[C@@H](CO)O2)c(=O)n1 [Decitabine] (partner 2 µM)
NCI-H650; first compound 5 µM
  relative viability: 0.314
NCI-H650; first compound 15.81 µM
  relative viability: 0.295
NCI-H650; first compound 50 µM
  relative viability: 0.299
NCI-H650; first compound 158.11 µM
  relative viability: 0.321
NCI-H650; first compound 500 µM
  relative viability: 0.288
EPLC-272H; first compound 5 µM
  relative viability: 0.358
EPLC-272H; first compound 15.81 µM
  relative viability: 0.386
EPLC-272H; first compound 50 µM
  relative viability: 0.429
EPLC-272H; first compound 158.11 µM
  relative viability: 0.343
EPLC-272H; first compound 500 µM
  relative viability: 0.319
NCI-H2087; first compound 5 µM
  relative viability: 0.261
NCI-H2087; first compound 15.81 µM
  relative viability: 0.218
NCI-H2087; first compound 50 µM
  relative viability: 0.221
NCI-H2087; first compound 158.11 µM
  relative viability: 0.115
NCI-H2087; first compound 500 µM
  relative viability: 0.0094
NCI-H2085; first compound 5 µM
  relative viability: 0.536
NCI-H2085; first compound 15.81 µM
  relative viability: 0.525
NCI-H2085; first compound 50 µM
  relative viability: 0.568
NCI-H2085; first compound 158.11 µM
  relative viability: 0.437
NCI-H2085; first compound 500 µM
  relative viability: 0.208
LCLC-103H; first compound 5 µM
  relative viability: 0.753
LCLC-103H; first compound 15.81 µM
  relative viability: 0.77
LCLC-103H; first compound 50 µM
  relative viability: 0.714
LCLC-103H; first compound 158.11 µM
  relative viability: 0.29
LCLC-103H; first compound 500 µM
  relative viability: 0.288
RERF-LC-KJ; first compound 5 µM
  relative viability: 0.663
RERF-LC-KJ; first compound 15.81 µM
  relative viability: 0.619
RERF-LC-KJ; first compound 50 µM
  relative viability: 0.643
RERF-LC-KJ; first compound 158.11 µM
  relative viability: 0.272
RERF-LC-KJ; first compound 500 µM
  relative viability: 0.199
NCI-H2170; first compound 5 µM
  relative viability: 0.458
NCI-H2170; first compound 15.81 µM
  relative viability: 0.484
NCI-H2170; first compound 50 µM
  relative viability: 0.486
NCI-H2170; first compound 158.11 µM
  relative viability: 0.342
NCI-H2170; first compound 500 µM
  relative viability: 0.199
PC-14; first compound 5 µM
  relative viability: 0.266
PC-14; first compound 15.81 µM
  relative viability: 0.201
PC-14; first compound 50 µM
  relative viability: 0.23
PC-14; first compound 158.11 µM
  relative viability: 0.109
PC-14; first compound 500 µM
  relative viability: 0.0133
SK-MES-1; first compound 5 µM
  relative viability: 0.422
SK-MES-1; first compound 15.81 µM
  relative viability: 0.367
SK-MES-1; first compound 50 µM
  relative viability: 0.377
SK-MES-1; first compound 158.11 µM
  relative viability: 0.19
SK-MES-1; first compound 500 µM
  relative viability: 0.103
NCI-H647; first compound 5 µM
  relative viability: 0.345
NCI-H647; first compound 15.81 µM
  relative viability: 0.462
NCI-H647; first compound 50 µM
  relative viability: 0.352
NCI-H647; first compound 158.11 µM
  relative viability: 0.0749
NCI-H647; first compound 500 µM
  relative viability: 0.0141
NCI-H1395; first compound 5 µM
  relative viability: 0.667
NCI-H1395; first compound 15.81 µM
  relative viability: 0.654
NCI-H1395; first compound 50 µM
  relative viability: 0.764
NCI-H1395; first compound 158.11 µM
  relative viability: 0.675
NCI-H1395; first compound 500 µM
  relative viability: 0.597
NCI-H3122; first compound 5 µM
  relative viability: 0.344
NCI-H3122; first compound 15.81 µM
  relative viability: 0.439
NCI-H3122; first compound 50 µM
  relative viability: 0.481
NCI-H3122; first compound 158.11 µM
  relative viability: 0.376
NCI-H3122; first compound 500 µM
  relative viability: 0.185
A-427; first compound 5 µM
  relative viability: 0.55
A-427; first compound 15.81 µM
  relative viability: 0.551
A-427; first compound 50 µM
  relative viability: 0.582
A-427; first compound 158.11 µM
  relative viability: 0.495
A-427; first compound 500 µM
  relative viability: 0.435
NCI-H1651; first compound 5 µM
  relative viability: 0.625
NCI-H1651; first compound 15.81 µM
  relative viability: 0.504
NCI-H1651; first compound 50 µM
  relative viability: 0.661
NCI-H1651; first compound 158.11 µM
  relative viability: 0.523
NCI-H1651; first compound 500 µM
  relative viability: 0.562
COR-L 105; first compound 5 µM
  relative viability: 0.68
COR-L 105; first compound 15.81 µM
  relative viability: 0.671
COR-L 105; first compound 50 µM
  relative viability: 0.668
COR-L 105; first compound 158.11 µM
  relative viability: 0.375
COR-L 105; first compound 500 µM
  relative viability: 0.22
LXF-289; first compound 5 µM
  relative viability: 0.369
LXF-289; first compound 15.81 µM
  relative viability: 0.375
LXF-289; first compound 50 µM
  relative viability: 0.365
LXF-289; first compound 158.11 µM
  relative viability: 0.272
LXF-289; first compound 500 µM
  relative viability: 0.0864
NCI-H1975; first compound 5 µM
  relative viability: 0.391
NCI-H1975; first compound 15.81 µM
  relative viability: 0.413
NCI-H1975; first compound 50 µM
  relative viability: 0.399
NCI-H1975; first compound 158.11 µM
  relative viability: 0.412
NCI-H1975; first compound 500 µM
  relative viability: 0.0581
NCI-H1993; first compound 5 µM
  relative viability: 0.643
NCI-H1993; first compound 15.81 µM
  relative viability: 0.56
NCI-H1993; first compound 50 µM
  relative viability: 0.679
NCI-H1993; first compound 158.11 µM
  relative viability: 0.61
NCI-H1993; first compound 500 µM
  relative viability: 0.327
NCI-H2023; first compound 5 µM
  relative viability: 0.215
NCI-H2023; first compound 15.81 µM
  relative viability: 0.257
NCI-H2023; first compound 50 µM
  relative viability: 0.244
NCI-H2023; first compound 158.11 µM
  relative viability: 0.0918
NCI-H2023; first compound 500 µM
  relative viability: 0.0147
NCI-H596; first compound 5 µM
  relative viability: 1.13
NCI-H596; first compound 15.81 µM
  relative viability: 0.965
NCI-H596; first compound 50 µM
  relative viability: 0.98
NCI-H596; first compound 158.11 µM
  relative viability: 0.866
NCI-H596; first compound 500 µM
  relative viability: 0.111
HOP-62; first compound 5 µM
  relative viability: 0.186
HOP-62; first compound 15.81 µM
  relative viability: 0.235
HOP-62; first compound 50 µM
  relative viability: 0.191
HOP-62; first compound 158.11 µM
  relative viability: 0.173
HOP-62; first compound 500 µM
  relative viability: 0.0675
COR-L23; first compound 5 µM
  relative viability: 0.494
COR-L23; first compound 15.81 µM
  relative viability: 0.367
COR-L23; first compound 50 µM
  relative viability: 0.469
COR-L23; first compound 158.11 µM
  relative viability: 0.229
COR-L23; first compound 500 µM
  relative viability: 0.0175
